Entries after “also recorded” stand apart in the source; their conditions may differ.
Legend:
Solubility in water = format: physicochemical; details: compared with C29
[1] = in vivo; stated for o-vanillin, reported previously for its isomer vanillin (Beaudry 2010); cited from earlier work
TLR2 = TLR2 (Mus musculus, UniProt Q9QUN7); experiment: Cytokine mRNA in murine peritoneal macrophages (PEC) stimulated with bacterial TLR2 agonists; format: cell-based; details: C29 50 μM
TLR2/6 = TLR2/6 (Homo sapiens, UniProt O60603); experiment: P2C-induced IL-8 mRNA (qRT-PCR) in HEK-TLR2 stable transfectants; format: cell-based; set-up: expressed in transfected cells
mTLR2/6 = target: T1, mTLR2/6 (Mus musculus, UniProt Q9QUN7); experiment: NF-κβ (ELAM)-luciferase reporter assay in HEK293T cells transfected with murine TLR2 and TLR6, P2C; format: cell-based; details: HEK293T transfected with murine TLR2 and TLR6, C29 50 μM, P2C 50 ng/mL 5 hrs
T1 construct: expressed in transfected cells; host or cells: HEK293T, transient transfection; plasmids from Dr. Vladimir Toshchakov
Experimental: FIG. 9. C29 is species-specific and blocks human TLR2/6 signaling, but not murine TLR2/6 signaling. (A-D) HEK293T cells were transiently transfected with reporter constructs for ELAM-luciferase, Renilla-luciferase, and pcDNA3.1 in combination with/without pcDNA3-YFP-hTLR2, pFLAG-CMV1-hTLR1, pcDNA3-CFP-hTLR6, pcDNA3.1-mTLR2-CFP, pcDNA3.1-mTLR1-YFP, or pcDNA3.1-mTLR6-CFP. Cells were pretreated for 1 hr with media, vehicle (65 μM NaOH), or C29 (50 μM) and then treated with P3C or P2C (50 ng/mL) for 5 hrs in the presence of media, vehicle, or C29. Lysates were prepared and the dual-luciferase assay performed. Panels A and B represent the mean±SEM from 3 independent experiments and panels C and D represent the mean±SEM from 2 independent experiments each carried out in duplicate (*, p≤0.05; **, p≤0.01).
HEK293T cells were cultured and plated overnight in 12-well tissue culture plates (2×10^5 cells/well). Transfection mixtures consisted of pcDNA3-YFP-hTLR2 or pcDNA3.1 control vector (1 μg/well each), pELAM (NF-κB)-luciferase (0.2 μg/well), and pRL-TK-Renilla luciferase (0.05 μg/well). […] Cells were lysed in a passive lysis buffer (Promega, Madison, WI) and firefly luciferase and Renilla luciferase activities were measured using the dual luciferase reporter assay system (Promega, Madison, WI). […]

[2] = system: HEK-TLR2 stable transfectants; experiment: LDH release cytotoxicity assay; format: cell-based, human; details: C29 10 μM or 50 μM
Experimental: FIG. 7. C29 is not cytotoxic to HEK-TLR2 stable transfectants. Cells were pretreated for 1 hr with media, vehicle (65 μM NaOH), or C29 (10 μM or 50 μM) and then stimulated with P3C (200 ng/mL), P2C (200 ng/mL), or hTNF-α (300 ng/mL) for 1 hr in the presence of media, vehicle, or C29. Supernatants of cell cultures were collected and analyzed for LDH release as a measure of cell cytotoxicity with Triton X-lysed cells serving as the positive control. LDH release is representative of 1 of 2 independent experiments carried out in duplicate.
Cellular cytotoxicity was determined by measuring lactate dehydrogenase (LDH) activity released in the media after treatment with TLR agonist or TNF-α in the presence of media, vehicle (NaOH), or C29 using the CytoTox 96 nonradioactive cytotoxicity assay (Promega, Madison, WI) and quantified by measuring wavelength absorbance at 490 nm. Treatment of cells with Triton X-100 served as the positive control.

[3] = murine macrophages, MOI=0.7, 4 hrs
[4] = primary murine macrophages (PEC), MOI=50, 4 hrs

TLR2, sequence (Q9QUN7 25-784): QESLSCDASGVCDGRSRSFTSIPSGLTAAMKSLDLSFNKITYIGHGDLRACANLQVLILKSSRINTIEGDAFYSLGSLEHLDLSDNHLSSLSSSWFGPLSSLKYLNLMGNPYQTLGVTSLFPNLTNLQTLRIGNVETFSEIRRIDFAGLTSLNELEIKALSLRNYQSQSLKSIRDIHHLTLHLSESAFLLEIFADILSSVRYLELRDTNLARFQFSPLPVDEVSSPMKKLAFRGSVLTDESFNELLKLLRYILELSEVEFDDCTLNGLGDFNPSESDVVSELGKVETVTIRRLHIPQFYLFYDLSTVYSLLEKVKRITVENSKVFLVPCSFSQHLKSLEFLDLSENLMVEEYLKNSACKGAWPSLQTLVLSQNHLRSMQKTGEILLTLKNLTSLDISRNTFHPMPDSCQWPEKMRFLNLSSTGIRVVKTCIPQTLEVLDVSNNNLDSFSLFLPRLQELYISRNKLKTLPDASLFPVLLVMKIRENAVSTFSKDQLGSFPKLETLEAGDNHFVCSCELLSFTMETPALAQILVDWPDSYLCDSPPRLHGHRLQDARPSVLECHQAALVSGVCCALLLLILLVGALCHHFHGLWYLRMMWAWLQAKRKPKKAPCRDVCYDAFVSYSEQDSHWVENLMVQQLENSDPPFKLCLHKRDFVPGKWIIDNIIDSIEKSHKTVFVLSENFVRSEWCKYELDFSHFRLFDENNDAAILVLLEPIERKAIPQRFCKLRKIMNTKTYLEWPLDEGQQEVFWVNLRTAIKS
TLR2/6, sequence (O60603 21-784): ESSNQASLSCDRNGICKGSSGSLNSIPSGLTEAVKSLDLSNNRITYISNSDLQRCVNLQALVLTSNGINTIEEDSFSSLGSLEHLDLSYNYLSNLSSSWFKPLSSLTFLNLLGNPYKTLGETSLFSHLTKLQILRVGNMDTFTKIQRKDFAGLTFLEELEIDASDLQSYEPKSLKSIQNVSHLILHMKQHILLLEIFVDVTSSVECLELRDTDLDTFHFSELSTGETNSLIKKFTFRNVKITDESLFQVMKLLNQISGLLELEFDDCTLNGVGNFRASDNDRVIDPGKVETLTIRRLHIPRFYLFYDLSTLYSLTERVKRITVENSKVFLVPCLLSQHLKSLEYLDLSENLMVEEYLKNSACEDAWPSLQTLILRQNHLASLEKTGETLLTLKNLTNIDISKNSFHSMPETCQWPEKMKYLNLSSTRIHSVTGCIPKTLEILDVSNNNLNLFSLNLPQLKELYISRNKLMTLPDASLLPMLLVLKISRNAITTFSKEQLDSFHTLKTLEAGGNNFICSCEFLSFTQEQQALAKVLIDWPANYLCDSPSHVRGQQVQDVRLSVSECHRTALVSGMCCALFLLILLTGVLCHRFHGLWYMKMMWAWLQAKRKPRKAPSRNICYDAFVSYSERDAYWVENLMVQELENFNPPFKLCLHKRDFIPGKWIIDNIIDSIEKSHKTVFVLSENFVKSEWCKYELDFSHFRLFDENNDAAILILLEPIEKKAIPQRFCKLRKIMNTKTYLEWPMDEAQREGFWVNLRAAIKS
T1 sequence (Q9QUN7 25-784): as the sequence (Q9QUN7 25-784) above

For `COc1cccc(C=O)c1O` [Compound C29L, ortho-vanillin], the solubility in water (Solubility in water) is given as “more soluble in water than C29” and the bioavailability [1] is given as “poor bioavailability”.

In the case of `COc1cccc(/C=N/c2cccc(C(=O)O)c2C)c1O` [Compound C29], the “live S. pneumoniae-induced IL-1β mRNA” value (TLR2; [3]) was “inhibited”, the “live S. pneumoniae-induced IL-12 p40 mRNA” value (TLR2; [3]) was “inhibited” and the “HKSA-mediated IL-1β mRNA” value (TLR2; [4]) was “significantly blocked”. The “heat-killed S. pneumoniae (HKSP)-mediated IL-1β mRNA” value (TLR2; [4]) was “significantly blocked”, the inhibition at 100 µM (TLR2/6; 100 μM compound, 1 hr pretreatment, P2C 5 ng/mL 1 hr, HEK-TLR2 cells, read-out: decrease of P2C-induced IL-8 mRNA) was no less than 50% and the “P2C-induced IL-8 mRNA” value (TLR2/6; C29 10 μM or 50 μM, P2C 200 ng/mL 1 hr, HEK-TLR2 stable transfectants) was “blocked P3C- and P2C-induced IL-8 mRNA dose-dependently”. For the same molecule, the “mTLR2/6-induced NF-κβ-luciferase activity” value (mTLR2/6) was “but not mTLR2/6-induced” and the “cytotoxicity (LDH release)” value [2] was “no effect; also recorded: not cytotoxic”.

From patent US12653800B2, “Small molecule inhibitors of TLR2 signaling” (University of Maryland, Baltimore, priority 2015, dated 2026)
